Results on 19 compounds are retold here after ChEMBL document CHEMBL5233278, “Recent Advances in the Medicinal Chemistry of Farnesoid X Receptor” (J Med Chem, 2021).

Data set [1] addresses T1, Bile acid receptor (Homo sapiens, UniProt Q96RI1).
T1 sequence (Q96RI1 whole entry): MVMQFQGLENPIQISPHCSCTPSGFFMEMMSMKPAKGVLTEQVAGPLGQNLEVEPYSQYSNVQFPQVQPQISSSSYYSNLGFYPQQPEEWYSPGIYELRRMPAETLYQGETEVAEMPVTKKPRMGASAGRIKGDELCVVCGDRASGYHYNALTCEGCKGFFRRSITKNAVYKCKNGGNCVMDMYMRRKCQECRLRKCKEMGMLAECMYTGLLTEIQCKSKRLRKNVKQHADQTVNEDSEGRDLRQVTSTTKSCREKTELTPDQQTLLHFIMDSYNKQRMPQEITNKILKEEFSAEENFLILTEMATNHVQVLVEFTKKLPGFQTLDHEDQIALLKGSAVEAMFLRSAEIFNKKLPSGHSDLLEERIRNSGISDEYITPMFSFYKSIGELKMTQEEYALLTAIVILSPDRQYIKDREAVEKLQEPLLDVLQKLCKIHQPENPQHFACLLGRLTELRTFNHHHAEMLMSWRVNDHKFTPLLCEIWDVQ
Put plainly: Agonist activity at human FXR incubated for 24 hrs by luciferase reporter assay.

Data set [2] concerns the target Bile acid receptor (Homo sapiens) (UniProt Q96RI1). In words: Agonist activity at FXR in human HepG2 cells at 3 uM relative to control. The settings on record: filed as agonist.
Data set [3] shares this target. In words: Agonist activity at FXR in human HepG2 cells coexpressing BSEP at 0.3 uM relative to control. The settings on record: filed as agonist.
Data set [4] has as its target T1, Bile acid receptor. Put plainly: Agonist activity at human FXR.
Data set [5] concerns the target T1, Bile acid receptor. In words: Agonist activity at FXR in HEK293T cells by lanthascreen TR-FRET assay. Format: cell-based. Background: TR-FRET usually uses a lanthanide donor and a delayed reading to cut background.
Data set [6] in a line: Metabolic stability in human liver microsomes assessed as half life in presence of NADPH incubated up to 60 mins by LC-MS/MS analysis. The data set is classed as ADME, Microsome. (Liver microsomes are vesicles of endoplasmic reticulum, rich in cytochrome P450 enzymes.)
In data set [7] the target is T1, Bile acid receptor. Put plainly: Agonist activity at FXR in human HeLa cells incubated for 24 hrs by Dual-Glo luciferase assay. To be noted: hela. Format: cell-based.
For data set [8], the target named is T2, Bifunctional epoxide hydrolase 2 (Homo sapiens, UniProt P34913).
T2 sequence (P34913 whole entry): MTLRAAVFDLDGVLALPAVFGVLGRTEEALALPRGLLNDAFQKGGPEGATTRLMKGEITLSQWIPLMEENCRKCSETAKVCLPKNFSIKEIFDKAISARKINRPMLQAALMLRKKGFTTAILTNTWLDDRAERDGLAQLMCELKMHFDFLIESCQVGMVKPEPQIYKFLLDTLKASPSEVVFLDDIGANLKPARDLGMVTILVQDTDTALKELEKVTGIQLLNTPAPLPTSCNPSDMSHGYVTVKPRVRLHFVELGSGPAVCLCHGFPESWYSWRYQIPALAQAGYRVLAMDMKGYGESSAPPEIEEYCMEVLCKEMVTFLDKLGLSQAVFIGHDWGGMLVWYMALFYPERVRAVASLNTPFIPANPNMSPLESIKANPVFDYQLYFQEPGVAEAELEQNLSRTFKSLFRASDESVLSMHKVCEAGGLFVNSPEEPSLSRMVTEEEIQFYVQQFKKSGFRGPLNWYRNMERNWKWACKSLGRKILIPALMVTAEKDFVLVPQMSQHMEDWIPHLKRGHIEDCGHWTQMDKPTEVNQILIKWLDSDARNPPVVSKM
Put plainly: Inhibition of sEH (unknown origin).

The nature of data set [9]: Oral bioavailability in Sprague-Dawley rat at 5 mg/kg administered via gavage by LC-MS/MS analysis. Format: ADME, organism-based. To be noted: in vivo.
In data set [10] the target is T1, Bile acid receptor. In words: Agonist activity at FXR in human HeLa cells by Dual-Glo luciferase assay. Format: cell-based.
Data set [11] has as its target T1, Bile acid receptor. Put plainly: Agonist activity at FXR (unknown origin) incubated for 180 mins by TR-FRET assay.
Data set [12] deals with Mus musculus. Put plainly: Anti-NASH activity in nonalcoholic steatohepatitis C57BL/6 mouse model assessed as decrease in level of serum AST 10 mg/kg, iv relative to control. Format: functional. Further details: scale not given: the % may be the effect or the level left.
Data set [13] deals with Mus musculus. In words: Anti-NASH activity in nonalcoholic steatohepatitis C57BL/6 mouse model assessed as decrease in level of serum ALT 10 mg/kg, iv relative to control. The data set is classed as functional. Also on record: scale not given: the % may be the effect or the level left.
Data set [14] deals with T1, Bile acid receptor. In words: Agonist activity at FXR in HEK293T cells by steady-glo luciferase assay. The data set is classed as cell-based.
Data set [15] addresses Voltage-gated inwardly rectifying potassium channel KCNH2 (Homo sapiens, UniProt Q12809). Put plainly: Inhibition of hERG. The data set is classed as toxicity.
In data set [16] the target is T1, Bile acid receptor. In words: Agonist activity at FXR (unknown origin).

Voltage-gated inwardly rectifying potassium channel KCNH2, sequence (Q12809 whole entry): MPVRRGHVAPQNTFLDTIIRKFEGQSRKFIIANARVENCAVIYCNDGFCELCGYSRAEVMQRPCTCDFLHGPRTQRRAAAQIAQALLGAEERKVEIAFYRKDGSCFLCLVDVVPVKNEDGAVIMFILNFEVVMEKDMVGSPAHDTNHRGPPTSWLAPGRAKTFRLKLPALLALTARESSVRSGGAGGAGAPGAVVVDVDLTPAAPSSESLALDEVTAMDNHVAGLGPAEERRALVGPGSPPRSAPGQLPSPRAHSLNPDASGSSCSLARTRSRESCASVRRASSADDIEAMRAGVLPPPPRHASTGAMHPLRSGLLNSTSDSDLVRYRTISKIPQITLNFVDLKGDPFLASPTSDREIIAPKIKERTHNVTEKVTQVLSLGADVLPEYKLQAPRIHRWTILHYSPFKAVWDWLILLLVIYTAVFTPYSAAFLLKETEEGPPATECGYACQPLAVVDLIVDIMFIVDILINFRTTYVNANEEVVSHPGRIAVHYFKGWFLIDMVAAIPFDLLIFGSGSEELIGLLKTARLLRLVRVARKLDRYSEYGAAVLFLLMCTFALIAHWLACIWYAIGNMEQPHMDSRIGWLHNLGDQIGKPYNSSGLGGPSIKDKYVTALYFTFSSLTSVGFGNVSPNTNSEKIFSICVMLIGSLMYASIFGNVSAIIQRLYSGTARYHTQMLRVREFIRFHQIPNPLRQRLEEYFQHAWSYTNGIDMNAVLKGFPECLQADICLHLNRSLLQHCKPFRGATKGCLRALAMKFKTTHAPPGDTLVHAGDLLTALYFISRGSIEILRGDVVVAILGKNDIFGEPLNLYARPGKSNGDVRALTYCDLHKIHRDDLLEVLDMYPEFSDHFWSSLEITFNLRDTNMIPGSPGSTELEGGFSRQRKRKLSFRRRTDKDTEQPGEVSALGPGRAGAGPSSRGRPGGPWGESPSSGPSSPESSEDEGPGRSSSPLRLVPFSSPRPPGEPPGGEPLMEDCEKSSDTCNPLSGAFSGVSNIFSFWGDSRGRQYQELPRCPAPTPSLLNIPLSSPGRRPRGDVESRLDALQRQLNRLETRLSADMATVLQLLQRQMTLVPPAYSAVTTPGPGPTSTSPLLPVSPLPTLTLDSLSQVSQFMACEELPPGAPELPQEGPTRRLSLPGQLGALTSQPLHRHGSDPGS

`CC[C@H]1[C@@H](O)[C@@H]2[C@H](CC[C@]3(C)[C@@H]([C@H](C)CCNC(=O)NS(=O)(=O)c4ccc(C(C)(C)C)cc4)CC[C@@H]23)[C@@]2(C)CC[C@@H](O)[C@H](F)[C@@H]12`: the EC50 at Bile acid receptor [1] was 0.019 µM.

Consider `O=C(O)c1ccc([C@@H]2C[C@H]2c2ccc(OCc3c(-c4c(Cl)cccc4Cl)noc3C3CC3)cc2Cl)cc1`, for which the Activity in data set [2] was found to be 100%; in data set [3], 60%.

In the case of `CC(C)Oc1cc(C(=O)O)cc2sc(O[C@@H]3CO[C@H]4[C@@H]3OC[C@H]4OCc3c(-c4ccccc4OC(F)(F)F)noc3C3CC3)nc12`, at Bile acid receptor [4], the EC50 is less than 0.03 µM.

At Bile acid receptor [5], `CCc1onc(-c2c(Cl)cccc2Cl)c1COc1ccc(C2(C)CC2c2ccc(C(=O)O)cc2)c(Cl)c1` (centres undefined) returned an EC50 of less than 0.1 µM.

As for `CC(C)Oc1cc(C(=O)NS(=O)(=O)N2CCCCC2)cc2sc(O[C@@H]3CO[C@H]4[C@H]3OC[C@H]4OCc3c(-c4c(Cl)cccc4Cl)noc3C3CC3)nc12`, at Bile acid receptor [4], the EC50 is less than 0.03 µM.

For the compound `CC(C)Oc1cc(C(=O)NS(=O)(=O)N2CCCC2)cc2sc(O[C@@H]3CO[C@H]4[C@H]3OC[C@H]4OCc3c(-c4c(Cl)cccc4Cl)noc3C3CC3)nc12`, the EC50 at Bile acid receptor [4] is less than 0.03 µM.

`O=C(O)c1ccc(-c2csc(N3[C@@H]4CC[C@H]3C[C@@H](OCc3c(-c5ccccc5OC(F)(F)F)noc3C3CC3)C4)n2)cc1C(F)(F)F`: the half-life in data set [6] stood at 2.5 h.

Compound `CC(C)(C)c1ccc(C(=O)Nc2ccc3ccn(Cc4ccc(C(=O)O)cc4)c3c2)cc1` had an EC50 at Bile acid receptor [7] of 3.5 µM. Moreover, the IC50 in data set [8] came to 2.9 µM.

Regarding `O=C(O)c1ccc2c(c1)Oc1ccc(OCc3c(-c4ccccc4OC(F)(F)F)noc3C3CC3)nc1C1(CC1)C2`, the bioavailability in [9] worked out at 71.3%.

`O=C(O)c1cccc(NC(=O)c2ccc(Oc3ccccc3)cc2)c1` registered an EC50 on Bile acid receptor [10] of 0.01 µM.

As to `O=C(O)CNC(=O)c1ccc(N2CCC3(CC2)CC(OCc2c(-c4ccccc4OC(F)(F)F)noc2C2CC2)CO3)nc1` (centres undefined), on Bile acid receptor [11], a half-maximal response (EC50) required 0.0017 µM.

With `CC(C)n1ncc(-c2c(Cl)cccc2Cl)c1COc1ccc(N(C)Cc2cccc(C(=O)O)c2)c(C(F)(F)F)c1`, the Activity with Mus musculus [12] is 59%; with Mus musculus [13], 63%.

`O=S(O)c1cc(F)c2nc(N3[C@@H]4CC[C@H]3C[C@@H](OCc3c(-c5ccccc5OC(F)(F)F)noc3C3CC3)C4)sc2c1` returned an EC50 on Bile acid receptor [14] of less than 0.5 µM.

Consider `O=C(O)c1cc(F)c2nc(N3C[C@@H]4CC[C@H]3C[C@@H]4OCc3c(-c4ccccc4OC(F)(F)F)noc3C3CC3)sc2c1`, for which the Activity in data set [2] was found to be 125%; in data set [3] it was 84%.

On to `CC[C@H]1[C@@H](O)[C@@H]2[C@H](CC[C@]3(C)[C@@H]([C@H](C)CCNC(=O)NS(=O)(=O)c4ccc(C)cc4)CC[C@@H]23)[C@@]2(C)CC[C@@H](O)[C@H](F)[C@@H]12`, for which the EC50 at Bile acid receptor [1] stood at 0.018 µM.

In turn, `Cc1cc(OCc2c(-c3c(Cl)cccc3Cl)noc2C2CC2)ccc1C1=NOC(c2cc(C(=O)O)ccn2)C1` (centres undefined) displayed an IC50 in [15] of more than 30 µM.

Consider `O=C(O)c1ccc2nc(N3CCC(OCc4c(-c5c(Cl)cccc5Cl)noc4C4CC4)C4CC43)sc2c1` (centres undefined), for which the Activity in data set [2] is 125%; in data set [3] it was 64%.

On Bile acid receptor [14], `O=C(O)c1ccc2c(c1)CN(C(=O)N1[C@@H]3CC[C@H]1C[C@@H](OCc1c(-c4c(Cl)cccc4Cl)noc1C1CC1)C3)C2` yielded an EC50 of 0.01 µM.

`Cc1cc(NS(=O)(=O)N2[C@@H]3CC[C@H]2C[C@@H](OCc2c(-c4c(Cl)cccc4Cl)noc2C2CC2)C3)ccc1C(=O)O` came in with an EC50 at Bile acid receptor [16] of less than 0.05 µM.

A word on the EC50: it is the concentration at which the effect is half-maximal. Broadly, the half-life is the time in which the quantity being followed falls by half. As a reminder, the IC50 is the point on the concentration scale where inhibition reaches its midpoint. The bioavailability is dose-corrected exposure relative to a reference, in per cent.
